Assay results published in patent publication EP4803513A1, “SUBSTITUTED QUINAZOLINE COMPOUND, PREPARATION METHOD THEREFOR, PHARMACEUTICAL COMBINATION THEREOF, AND USE THEREOF” (Hongyun Biotech Co., Ltd., priority 2023, dated 2025).
pIC50: −log10 of the molar value.

Test system: BRK-BaF3 cells
Assay: Cell antiproliferative activity assay (CCK-8), BRK-BaF3
Type: cell-based
Conditions: 72 h, CCK-8, 3 days incubation
Procedure: The activity of compounds against BRK kinase can be evaluated by their inhibition of the growth of the BRK kinase-stably transfected BaF3 cell line (BRK-BaF3) and wild-type BaF3 cells (WT-BaF3). […] The larger the ratio of the half-maximal growth inhibitory concentration (IC50) of a compound between WT-BaF3 and BRK-BaF3 cells, the better the selectivity of the compound.
BRK-BaF3, WT-BaF3, WEHI cell line, and breast cancer cell line T47D were cultured using RPMI 1640 Basal medium or DMEM (Dulbecco's Modified Eagle Medium) (Shanghai Peiyuan Biotechnology, L220KJ), supplemented with 10% FBS (Gibco, REF 10099-141C) and 1% P/S (Shanghai Peiyuan Biotechnology, S110JV), in an incubator (Thermo 3020) at 37°C with 5% CO2. Cell viability was above 95%. Cells were passaged at a 3:1 ratio every 3-4 days. For WT-BaF3 cells, WEHI cells were first cultured, and their culture supernatant was filtered through a 0.22 µm filter. This supernatant was added at 10% to the regular culture medium to supplement IL-3 required for WT-BaF3 cell proliferation, which served as the culture medium for WT-BaF3. For testing, cells were first collected and counted, then prepared into a cell suspension at 100,000 cells/mL and plated at 100 µL per well. Drug concentrations started from 10 µM and were serially diluted 3:1. After incubation for 3 days, 20 µL of CCK-8 detection reagent (Targetmol C005) was added to each well. After incubation for 2-4 hours, OD450 was measured using a microplate reader (Varioskan LUX, Thermo Scientific). After subtracting the blank background, the curve was fitted and the IC50 was calculated using XLfit software.

Structure (SMILES) | pIC50
Cc1ccc(C#N)nc1-c1cc(C(C)C)c2nc(Nc3cn(CCO)nc3C)ncc2c1 [I-5] | ≥ 7.70
Cc1nn(CCO)cc1Nc1ncc2cc(-c3ccnc(F)c3F)cc(C(C)C)c2n1 [I-15] | 7.00 to 7.70
Cc1nn(CCO)cc1Nc1ncc2cc(-c3cc(F)ncc3F)cc(C(C)C)c2n1 [I-16] | ≥ 7.70
CC(=O)c1cc(-c2cc(C(C)C)c3nc(Nc4cn(CCO)nc4C)ncc3c2)ccn1 [I-18] | ≥ 7.70
Cc1cnc(F)cc1-c1cc(C(C)C)c2nc(Nc3cnn(CCO)c3C)ncc2c1 [I-19] | 7.00 to 7.70
Cc1nn(CCO)cc1Nc1ncc2cc(-c3cccnc3C(F)F)cc(C(C)C)c2n1 [I-23] | 7.00 to 7.70
CCc1ncccc1-c1cc(C(C)C)c2nc(Nc3cn(CCO)nc3C)ncc2c1 [I-24] | ≥ 7.70
Cc1nn(CCO)cc1Nc1ncc2cc(-c3cncc(Br)c3Cl)cc(C(C)C)c2n1 [I-37] | ≥ 7.70
Cc1nn(CCO)cc1Nc1ncc2cc(-c3cncc(Cl)c3Cl)cc(C(C)C)c2n1 [I-38] | ≥ 7.70
Cc1c(Nc2ncc3cc(-c4cnccc4F)cc(C(C)C)c3n2)cnn1CCO [I-58] | 7.00 to 7.70
Cc1c(Nc2ncc3cc(-c4cnccc4C#N)cc(C(C)C)c3n2)cnn1CCO [I-63] | 7.00 to 7.70
Cc1c(F)cncc1-c1cc(C(C)C)c2nc(Nc3cnn(CCO)c3C)ncc2c1 [I-67] | ≥ 7.70
Cc1ncc(F)cc1-c1cc(C(C)C)c2nc(Nc3cnn(CCO)c3C)ncc2c1 [I-69] | 7.00 to 7.70
Cc1c(Nc2ncc3cc(-c4c(F)ccnc4F)cc(C(C)C)c3n2)cnn1CCO [I-70] | ≥ 7.70
Cc1ccnc(C)c1-c1cc(C(C)C)c2nc(Nc3cnn(CCO)c3C)ncc2c1 [I-71] | ≥ 7.70
Cc1nn(CCO)cc1Nc1ncc2cc(-c3nccnc3Cl)cc(C(C)C)c2n1 [I-80] | ≥ 7.70
Cc1nn(CCO)cc1Nc1ncc2cc(-c3cncc(Cl)n3)cc(C(C)C)c2n1 [I-89] | 7.00 to 7.70
COc1cncc(-c2cc(C(C)C)c3nc(Nc4cn(CCO)nc4C)ncc3c2)n1 [I-91] | 7.00 to 7.70
Cc1nn(CCO)cc1Nc1ncc2cc(-c3cccnn3)cc(C(C)C)c2n1 [I-115] | 7.00 to 7.70
Cc1ncnc(C)c1-c1cc(C(C)C)c2nc(Nc3cnn(CCO)c3C)ncc2c1 [I-145] | 7.00 to 7.70
Cc1nn(CCO)cc1Nc1ncc2cc(-c3cccc(F)c3F)cc(C(C)C)c2n1 [I-156] | ≥ 7.70
Cc1nn(CCO)cc1Nc1ncc2cc(-c3cc(F)cc(F)c3)cc(C(C)C)c2n1 [I-158] | ≥ 7.70
Cc1nn(CCO)cc1Nc1ncc2cc(-c3cc(F)ccc3F)cc(C(C)C)c2n1 [I-159] | ≥ 7.70
Cc1ccc(F)cc1-c1cc(C(C)C)c2nc(Nc3cn(CCO)nc3C)ncc2c1 [I-161] | ≥ 7.70
Cc1nn(CCO)cc1Nc1ncc2cc(-c3cccc4c3OCO4)cc(C(C)C)c2n1 [I-163] | ≥ 7.70

Structure (SMILES) | pIC50
Cc1nn(CCO)cc1Nc1ncc2cc(-c3cccc4c3OCO4)cc(C3CC3)c2n1 [I-166] | 7.00 to 7.70
Cc1c(Nc2ncc3cc(-c4cc(F)ccc4F)cc(C(C)C)c3n2)cnn1CCO [I-169] | 7.00 to 7.70
Cc1ccc(F)cc1-c1cc(C(C)C)c2nc(Nc3cnn(CCO)c3C)ncc2c1 [I-171] | ≥ 7.70
Cc1c[nH]c(=O)cc1-c1cc(C(C)C)c2nc(Nc3cn(CCO)nc3C)ncc2c1 [I-172] | ≥ 7.70
Cc1c[nH]c(=O)cc1-c1cc(C(C)C)c2nc(Nc3cn(C(C)(C)CO)nc3C)ncc2c1 [I-173] | 7.00 to 7.70
Cc1c[nH]c(=O)cc1-c1cc(C(C)C)c2nc(Nc3cnn(CCO)c3)ncc2c1 [I-174] | ≥ 7.70
Cc1c[nH]c(=O)cc1-c1cc(C(C)C)c2nc(Nc3cn(CC(C)(C)O)nc3C)ncc2c1 [I-175] | ≥ 7.70
Cc1c[nH]c(=O)cc1-c1cc(C(C)C)c2nc(Nc3cnn(CC(C)(C)O)c3C)ncc2c1 [I-180] | ≥ 7.70
Cc1ccc2[nH]ncc2c1-c1cc(C(C)C)c2nc(Nc3cn(CCO)nc3C)ncc2c1 [I-182] | ≥ 7.70
Cc1ccc2[nH]ncc2c1-c1cc(C(C)C)c2nc(Nc3cnn(CCO)c3C)ncc2c1 [I-183] | ≥ 7.70
Cc1nn(CCO)cc1Nc1ncc2cc(-c3cncc4ccccc34)cc(C(C)C)c2n1 [I-184] | ≥ 7.70
Cc1cc2cn[nH]c2cc1-c1cc(C(C)C)c2nc(Nc3cn(CCO)nc3C)ncc2c1 [I-185] | 7.00 to 7.70
Cc1nn(CCO)cc1Nc1ncc2cc(-c3c[nH]c4ncccc34)cc(C(C)C)c2n1 [I-186] | 7.00 to 7.70
Cc1nn(C)cc1Nc1ncc2cc(-c3cc[nH]c(=O)c3)cc(C(C)C)c2n1 [III-1] | 7.00 to 7.70
Cc1c[nH]c(=O)cc1-c1cc(C(C)C)c2nc(Nc3cnn(C)c3C)ncc2c1 [III-3] | ≥ 7.70
Cc1c[nH]c(=O)cc1-c1cc(C(C)C)c2nc(Nc3cn(C)nc3Cl)ncc2c1 [III-5] | ≥ 7.70
COc1nn(C)cc1Nc1ncc2cc(-c3cc(=O)[nH]cc3C)cc(C(C)C)c2n1 [III-6] | 7.00 to 7.70
Cc1c[nH]c(=O)cc1-c1cc(C(C)C)c2nc(Nc3cn(C(F)F)nc3C)ncc2c1 [III-7] | ≥ 7.70
Cc1c[nH]c(=O)cc1-c1cc(C(C)C)c2nc(Nc3cnn(C(F)F)c3C)ncc2c1 [III-8] | ≥ 7.70
[2H]C([2H])([2H])n1ncc(Nc2ncc3cc(-c4cc(=O)[nH]cc4C)cc(C(C)C)c3n2)c1C [III-10] | ≥ 7.70
Cc1c[nH]c(=O)cc1-c1cc(C(C)C)c2nc(Nc3c[nH]nc3C)ncc2c1 [III-11] | ≥ 7.70
CCn1cc(Nc2ncc3cc(-c4cc(=O)[nH]cc4C)cc(C(C)C)c3n2)c(C)n1 [III-12] | ≥ 7.70
Cc1c[nH]c(=O)cc1-c1cc(C(C)C)c2nc(Nc3cn(C4CCN(C)CC4)nc3C)ncc2c1 [III-13] | ≥ 7.70
Cc1c[nH]c(=O)cc1-c1cc(C(C)C)c2nc(Nc3cn(C4CCN(C(C)C)CC4)nc3C)ncc2c1 [III-16] | ≥ 7.70
Cc1c[nH]c(=O)cc1-c1cc(C(C)C)c2nc(Nc3cnn(C4CCN(C(C)C)CC4)c3C)ncc2c1 [III-17] | ≥ 7.70

Structure (SMILES) | pIC50
Cc1c[nH]c(=O)cc1-c1cc(C(C)C)c2nc(Nc3cn(C4CCN(C5COC5)CC4)nc3C)ncc2c1 [III-18] | 7.00 to 7.70
Cc1c[nH]c(=O)cc1-c1cc(C(C)C)c2nc(Nc3cn([C@@H]4C[C@H]5CC[C@@H](C4)N5C)nc3C)ncc2c1 [III-25] | 7.00 to 7.70
Cc1c[nH]c(=O)cc1-c1cc(C(C)C)c2nc(Nc3cnn([C@@H]4C[C@H]5CC[C@@H](C4)N5C)c3C)ncc2c1 [III-26] | ≥ 7.70
Cc1c[nH]c(=O)cc1-c1cc(C(C)C)c2nc(Nc3cn(C4CCN(C)CC4)nc3C(F)(F)F)ncc2c1 [III-27] | ≥ 7.70
Cc1c[nH]c(=O)cc1-c1cc(C(C)C)c2nc(Nc3cnn(C4CCN(C)CC4)c3C(F)(F)F)ncc2c1 [III-28] | ≥ 7.70
CCc1nn(C2CCN(C)CC2)cc1Nc1ncc2cc(-c3cc(=O)[nH]cc3C)cc(C(C)C)c2n1 [III-29] | ≥ 7.70
CCc1c(Nc2ncc3cc(-c4cc(=O)[nH]cc4C)cc(C(C)C)c3n2)cnn1C1CCN(C)CC1 [III-30] | ≥ 7.70
COc1nn(C2CCN(C)CC2)cc1Nc1ncc2cc(-c3cc(=O)[nH]cc3C)cc(C(C)C)c2n1 [III-31] | ≥ 7.70
COc1nn(C2CCN(C(C)C)CC2)cc1Nc1ncc2cc(-c3cc(=O)[nH]cc3C)cc(C(C)C)c2n1 [III-32] | ≥ 7.70
Cc1c[nH]c(=O)cc1-c1cc(C(C)C)c2nc(Nc3cn(-c4cncnc4)nc3C)ncc2c1 [III-34] | 7.00 to 7.70
Cc1c[nH]c(=O)cc1-c1cc(C(C)C)c2nc(Nc3cn(C4CCCN(C)CC4)nc3C)ncc2c1 (stereo not drawn) [III-35] | ≥ 7.70
Cc1c[nH]c(=O)cc1-c1cc(C(C)C)c2nc(Nc3cnn(C4CCCN(C)CC4)c3C)ncc2c1 (stereo not drawn) [III-36] | ≥ 7.70
Cc1c[nH]c(=O)cc1-c1cc(C(C)C)c2nc(Nc3cn(C4CCN(C)C4)nc3C)ncc2c1 (stereo not drawn) [III-38] | ≥ 7.70
Cc1c[nH]c(=O)cc1-c1cc(C(C)C)c2nc(Nc3cn(C4CCN(C(C)C)C4)nc3C)ncc2c1 (stereo not drawn) [III-39] | ≥ 7.70
Cc1c[nH]c(=O)cc1-c1cc(C(C)C)c2nc(Nc3cn(C4COC4)nc3C)ncc2c1 [III-40] | ≥ 7.70
COCCn1cc(Nc2ncc3cc(-c4cc(=O)[nH]cc4C)cc(C(C)C)c3n2)c(C)n1 [III-42] | ≥ 7.70
COCCn1ncc(Nc2ncc3cc(-c4cc(=O)[nH]cc4C)cc(C(C)C)c3n2)c1C [III-43] | ≥ 7.70
COCCOCCn1cc(Nc2ncc3cc(-c4cc(=O)[nH]cc4C)cc(C(C)C)c3n2)c(C)n1 [III-44] | 7.00 to 7.70
COC[C@@H](C)n1cc(Nc2ncc3cc(-c4cc(=O)[nH]cc4C)cc(C(C)C)c3n2)c(C)n1 [III-45] | ≥ 7.70
COC[C@@H](C)n1ncc(Nc2ncc3cc(-c4cc(=O)[nH]cc4C)cc(C(C)C)c3n2)c1C [III-46] | ≥ 7.70
Cc1c[nH]c(=O)cc1-c1cc(C(C)C)c2nc(Nc3cn([C@@H](C)C(=O)N(C)C)nc3C)ncc2c1 [III-48] | ≥ 7.70
Cc1c[nH]c(=O)cc1-c1cc(C(C)C)c2nc(Nc3cnn([C@@H](C)C(=O)N(C)C)c3C)ncc2c1 [III-49] | 7.00 to 7.70
CCN(C)CCn1cc(Nc2ncc3cc(-c4cc(=O)[nH]cc4C)cc(C(C)C)c3n2)c(C)n1 [III-51] | ≥ 7.70
CCN(C)CCn1ncc(Nc2ncc3cc(-c4cc(=O)[nH]cc4C)cc(C(C)C)c3n2)c1C [III-52] | ≥ 7.70
COCCN(C)CCn1cc(Nc2ncc3cc(-c4cc(=O)[nH]cc4C)cc(C(C)C)c3n2)c(C)n1 [III-54] | ≥ 7.70
